Key:
tubulin = target: T1, tubulin (Sus scrofa, UniProt P02550+P02554); experiment: Tubulin assembly assay (tubulin binding); type: biochemical, porcine; conditions: under the assay conditions used
T1 construct: The procedure used is modified from Shelanski et al; from tissue
Description: The buffer was prepared with deionised water and the pH of the solution was adjusted to 6.6 by the drop-wise addition of 10M aq. NaOH. The buffer was stored at 4° C. prior to use.
Equipment: A Fluostar Optima 96 well plate reader equipped with a thermostat capability.
The tubulin assembly was followed by observing an increase in optical density of a tubulin solution at 350 nm at 37° C. Typically 1 ml of tubulin solution was diluted with EB (5 ml) and GTP solution (25 μl, 5 μl per ml of EB added) to the mixture. The mixture was vortexed for ten seconds in order to ensure the homogeneity of the mixture. 100 μl of the resultant solution was pipetted into a well in the 96 well plate. The increase in optical density of the tubulin solution was measured over a time course of ten minutes at 350 nm and 37° C. […] Accordingly, adjustments were made to the quantity of buffer added in order to obtain a protein concentration within the desired range. […] Tubulin solution (1000 was subsequently pipetted into each of the same three wells. The plate was immediately incubated at 37° C. and was subjected to orbital shaking for five seconds. The UV absorption was measured at 350 nm over a time course of ten minutes. The maximum slope of the resulting curve was measured. The slope of the blank represents the maximum rate of tubulin polymerisation.

rat aortic ring cultures [1] = experiment: Aortic ring assay (anti-angiogenic effect); type: cell-based
rat aortic ring cultures [2] = experiment: Aortic ring assay (anti-vascular model); type: cell-based; conditions: 1 μM
Description: The aortic ring assay is an ideal assay for testing the activity of anti-vascular, anti-angiogenic or pro-angiongenic agents. This method was originally developed and modified by Nicosia. The aorta can be excised from mice or rats, cut into ˜1 mm rings and cultured in either basement membrane matrix (matrigel) or collagen gel. Following incubation for several days the rings start to generate outgrowths of branching microvessels which are lined by endothelial cells and supported by pericytes and fibroblasts. The angiogenic response of the aorta is a self-limited process regulated by endogenous growth factors including bFGF [13], VEGF [14], PDGF [15] and angiopoietins.
The rat aorta model is an ex vivo assay which combines advantages of both in vitro and in vivo models. The process of angiogenesis takes place in a defined culture environment which can be easily adapted to different experimental conditions according to the requirement of the study. The cells of the aortic outgrowth have not been modified by repeated passages in culture and thus newly formed microvessels reproduce the characteristics of the vasculature formed during angiogenesis in vivo [17-18]. There is no influx of leukocytes from circulating blood therefore inflammatory complications which affect the interpretation of in vivo assays are minimised. For the purpose of this study, rat aortic ring cultures were used to investigate firstly the anti-vascular and then the anti-angiogenic activity of test compounds.
The successful growth of the aortic rings into a mircovessel network was dependent on several factors including (i) the amount of periaortic fibroadipose tissue left on the ring, (ii) the orientation of the ring, the way which the ring was embedded into the matrigel and (iii) the volume of the matrigel used.
The aortic ring assay is an ex vivo assay which allows the analyst to examine the inhibition/stimulation of angiogenesis as well as the breakdown of existing vasculature. Basement membrane matrix (matrigel) was stored at −20° C. Prior to use, matrigel vial was placed on ice and kept at 4° C. overnight in order to thaw. The matrigel was kept on ice at all times for the duration of the experiment. Aortic rings were obtained by excising the thoracic aorta of 5-10 weeks old Wistar male rats and removing the fibroadipose tissue from the aortic wall. The rings were obtained by cross-sectioning the aorta at ˜1 mm intervals, removed any blood clots by washing several times with EBM-2. Matrigel (80 μl) was placed uniformly in each well of a 12-well plate and the aortic rings were then placed individually in between the matrigel layer with the lumen perpendicular to the surface of the plate. The matrigel solution was allowed to solidify for 30-40 minutes at 37° C. and 1 ml EBM-2 medium (supplemented with 2% FBS and […] streptomycin/penicillin solution) was added to each culture. The aortic rings were kept in a humidified CO2 incubator at 37° C. and fresh medium was replaced three times a week starting from day 3. Once an established microvessel network was developed (day 7-9), test compounds diluted in EBM-2 medium (1 ml) were added to each well and incubated at 37° C. for 24 h. The cultures were monitored for microvessel breakdown over time and images were taken 1 h, 4 h and 24 h after treatment using an Olympus CKX41 inverted microscope. Images were captured with an E-330 SLR camera system and processed using Cell̂ A software. Each compound concentration was tested in duplicate. Results were presented as images showing the microvessel breakdown at each time point.

T1 sequence (P02550 whole entry): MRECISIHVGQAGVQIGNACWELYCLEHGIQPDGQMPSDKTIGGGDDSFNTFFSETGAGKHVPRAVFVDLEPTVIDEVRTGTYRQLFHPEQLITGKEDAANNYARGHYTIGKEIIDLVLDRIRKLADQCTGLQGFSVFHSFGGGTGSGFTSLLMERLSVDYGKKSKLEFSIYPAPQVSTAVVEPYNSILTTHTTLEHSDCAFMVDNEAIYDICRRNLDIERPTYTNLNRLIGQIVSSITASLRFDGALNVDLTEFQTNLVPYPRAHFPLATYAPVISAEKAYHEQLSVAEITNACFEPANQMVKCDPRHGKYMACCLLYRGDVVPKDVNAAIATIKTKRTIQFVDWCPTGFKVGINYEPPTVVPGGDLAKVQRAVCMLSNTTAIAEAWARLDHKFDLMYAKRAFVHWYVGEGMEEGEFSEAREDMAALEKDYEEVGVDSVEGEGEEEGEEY
T1 sequence (P02554 whole entry): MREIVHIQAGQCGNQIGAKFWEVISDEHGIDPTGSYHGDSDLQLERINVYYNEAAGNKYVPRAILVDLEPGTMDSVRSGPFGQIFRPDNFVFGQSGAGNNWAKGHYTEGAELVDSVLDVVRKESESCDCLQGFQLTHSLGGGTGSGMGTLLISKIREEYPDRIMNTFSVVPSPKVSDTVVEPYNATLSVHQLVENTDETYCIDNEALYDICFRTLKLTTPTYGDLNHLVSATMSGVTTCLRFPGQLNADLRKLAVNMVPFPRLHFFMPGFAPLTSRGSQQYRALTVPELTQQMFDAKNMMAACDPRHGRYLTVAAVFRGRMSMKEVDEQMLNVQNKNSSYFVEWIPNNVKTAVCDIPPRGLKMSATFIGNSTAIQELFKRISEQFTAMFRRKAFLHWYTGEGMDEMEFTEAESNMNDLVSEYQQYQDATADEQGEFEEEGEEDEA

Compound | tubulin binding activity (in words) (tubulin) | anti-angiogenic effect (microvessel area) (rat aortic ring cultures [1]; 0.1 μM) | anti-angiogenic effect (microvessel density) (rat aortic ring cultures [1]; 1 μM) | anti-vascular effect on established microvessel network (rat aortic ring cultures [2]; 4 h of treatment) | anti-vascular effect on established microvessel network (rat aortic ring cultures [2]; 24 h incubation)
COc1ccc(C2=CC(=O)CCc3cc(OC)c(OC)c(OC)c32)cc1O [Compound 12, 9-(3-hydroxy-4-methoxyphenyl)-1,2,3-trimethoxy-6,7-dihydro-5H-benzo[a]cyclohepten-7-one] | inactive |  |  |  | 
COc1ccc(C2=C/C(=N/OCC(=O)NO)CCc3c2cc(OC)c(OC)c3OC)cc1N [Compound 30, 2-[9-(3-Amino-4-methoxy-phenyl)-2,3,4-trimethoxy-5,6-dihydro-benzocyclohepten-7-ylideneaminooxy]-N-hydroxy-acetamide] |  | negligible reduction | significantly (p<0.01) lower microvessel density | satisfactory activity | clear microvessel disruption

— US20150018566A1, “TUBULIN BINDING AGENTS” (priority 2011, published 2015)
